This note sets out measurements from patent US9593149B2, “Amylin and calcitonin receptor agonist” (Novo Nordisk A/S, priority 2014, dated 2017).

The nature of data set [1]: Assay (IV) determination of solubility. It is filed as physicochemical. The protocol:
Assay (IV)—Determination of Solubility
The mimylin peptide was dissolved in water at ˜500 nmol/ml and mixed 1:1 with a series of buffers (100 mM glycylglycine pH 3.0, 100 mM glycylglycine pH 4.0, 100 mM glycylglycine pH 5.0, 100 mM bistrispropane pH 6.0, 100 mM bistrispropane pH 6.5, 100 mM bistrispropane pH 7.0, 100 mM bistrispropane pH 7.5, 100 mM bistrispropane pH 8.0).

A short description of data set [2]: Assay (IX) pK, T½ in mini-pig. It is filed as in vivo, Göttingen mini-pigs. Conditions: i.v. The protocol: Assay (IX)—pK—Determination of T½ in Mini-Pig
Pharmacokinetic (PK) studies in Göttingen mini-pigs were conducted in order to determine the T½ of the mimylin compound according to the Examples as indicated after i.v. administration.
T½ values of the amylin analogues of the invention is determined by pharmacokinetic studies in female Göttingen mini-pigs from Ellegaard Göttingen Minipigs ApS and the principles of laboratory animal care are followed.
An acclimatisation period of approximately 6-10 days was allowed before the animals entered the study. At start of the acclimatisation period the mini-pigs were about 5 to 12 months old and in the weight range of 15-35 kg. The mini-pigs had two central venous catheters inserted which were used for blood sampling.
The studies were conducted in an animal room which was illuminated to give a cycle of approximately 12 hours light and 12 hours darkness. The animals were housed individually. The animals had free access to domestic quality drinking water during the study, and no food restrictions applied for PK studies. The animals were weighed on arrival and on the days of dosing.
In the present studies the test substances were administered intravenously in approximately 5 nmol/kg dose. The animals received a single intravenous injection in one central venous catheter and blood sampling was performed from the other catheter, where possible. Each test substance was given to typically three but in some cases two or four animals.
A full plasma concentration-time profile, employing 12-16 sampling points, was obtained from each animal. In example blood samples were collected according to the following schedule:
After Intravenous Administration:
Pre-dose (0), 0.5, 1, 2, 4, 6, 8, 12, 24, 48, 72, 96, 120, 168 and 240 hours after injection. In some cases also additional blood samples up to 288 hours post injection were taken.
At each sampling time, 0.5 to 2 ml of blood was drawn from each animal. The blood samples were taken via the central venous catheter.
The 0.8 mL blood samples were collected into EDTA test tubes (8 mM EDTA). Blood samples were kept on ice for max 20 min. before centrifugation. Plasma was separated using centrifugation (i.e. at 4° C., 10 min., 2000G) and was immediately transferred to Micronic tubes on dry ice. Approximately 200 μl plasma was transferred to each Micronic tube. The plasma was stored at −20° C. until assayed. The plasma samples were assayed for the content of compound using LCMS.
The plasma concentration-time profiles were analysed by a non-compartmental pharmacokinetic analysis (NCA) using Phoenix WinNonlin 6.3 (Pharsight Inc., Mountain View, Calif., USA). NCA was performed using the individual plasma concentration-time profiles from each animal. T½ is the terminal half-life=In2/λz and was determined from λz, the first order rate constant associated with the terminal (log-linear) portion of the curve, estimated by linear regression of time vs. log concentration.
MS-Method for Amylin and Mimylin Quantification
40 μl plasma is diluted with 120 μl 66.67% EtOH+1% HCOOH and mixed. Centrifuged for 20 min. at 13000 rpm, 4° C. The supernatant is analyzed by an LC-MS method on a Sciex API 3000 and quantitated with a standard made up in plasma

≈ marks a conversion by molar mass, not a printed value. Numbered stars: 1 amine (or outer) side, 2 acyl side, 3 side chain; on linkers, the order of the positions; unused ones are H or OH. Peptide text beside a SMILES is read from it. * marks the point of attachment. C20 diacid = O=C(O)CCCCCCCCCCCCCCCCCCC(=O)*; C18 diacid = O=C(O)CCCCCCCCCCCCCCCCC(=O)*; γGlu = O=C(O)[C@H](CCC(=O)[*:2])N[*:1]; C12 diacid = O=C(O)CCCCCCCCCCC(=O)*

As to `CC(C)C[C@H](NC(=O)[C@H](CCC(=O)O)NC(=O)[C@H](Cc1cnc[nH]1)NC(=O)[C@H](CC(C)C)NC(=O)[C@H](CCC(=O)O)NC(=O)[C@H](C)NC(=O)[C@H](CO)NC(=O)[C@H](CC(C)C)NC(=O)[C@H](CCCNC(=N)N)NC(=O)CNC(=O)[C@H](CC(C)C)NC(=O)[C@@H](NC(=O)[C@H](C)NC(=O)[C@@H](NC(=O)[C@H](CO)NC(=O)[C@H](CC(C)C)NC(=O)[C@H](CCC(=O)O)NC(=O)[C@H](CO)NC(=O)[C@H](C)NC(=O)[C@H](CCC(=O)O)NC(=O)CCCCCCCCCCCCCCCCC(=O)O)[C@@H](C)O)C(C)C)C(=O)N[C@@H](C)C(=O)N[C@H](C(=O)N[C@@H](CC(C)C)C(=O)N1CCC[C@H]1C(=O)N[C@@H](CCCNC(=N)N)C(=O)N[C@H](C(=O)N[C@@H](CCC(=O)O)C(=O)N[C@H](C(=O)NCC(=O)N1CCC[C@H]1C(=O)N[C@@H](CCC(=O)O)C(=O)N[C@@H](CO)C(=O)N1CCC[C@H]1C(N)=O)[C@@H](C)O)[C@@H](C)O)[C@@H](C)O` [compound 9, [N-terminal(C18 diacid), 9V]mimylin] ({C18 diacid}-EASELSTAVLGRLSAELHELATLPRTETGPESP-NH2), the Solubility result in data set [1] (pH 3.0), in data set [1] (pH 4.0), in data set [1] (pH 5.0), in data set [1] (pH 6.0), in data set [1] (pH 6.5) and in data set [1] (pH 7.0) was “≧200 μM” throughout. The Solubility entry in data set [1] (pH 7.5) and in data set [1] (pH 8.0) was “≧200 μM” in each case. In data set [2], the “PK mini pig iv T½” value was 90 h.
Regarding `CC(C)C[C@H](NC(=O)[C@H](C)NC(=O)[C@H](C)NC(=O)[C@@H](NC(=O)[C@H](CO)NC(=O)[C@H](CC(C)C)NC(=O)[C@H](CCC(=O)O)NC(=O)[C@H](CO)NC(=O)[C@H](C)NC(=O)[C@H](CCC(=O)O)NC(=O)CCCCCCCCCCCCCCCCCCC(=O)O)[C@@H](C)O)C(=O)NCC(=O)N[C@@H](CCCNC(=N)N)C(=O)N[C@@H](CC(C)C)C(=O)N[C@@H](CO)C(=O)N[C@@H](C)C(=O)N[C@@H](CCC(=O)O)C(=O)N[C@@H](CC(C)C)C(=O)N[C@@H](Cc1cnc[nH]1)C(=O)N[C@@H](CCC(=O)O)C(=O)N[C@@H](CC(C)C)C(=O)N[C@@H](C)C(=O)N[C@H](C(=O)N[C@@H](CC(C)C)C(=O)N1CCC[C@H]1C(=O)N[C@@H](CCCNC(=N)N)C(=O)N[C@H](C(=O)N[C@@H](CCC(=O)O)C(=O)N[C@H](C(=O)NCC(=O)N[C@@H](CO)C(=O)NCC(=O)N[C@@H](CO)C(=O)N1CCC[C@H]1C(N)=O)[C@@H](C)O)[C@@H](C)O)[C@@H](C)O` [compound 22, [N-terminal(C20 diacid), 30S, 31G]mimylin] ({C20 diacid}-EASELSTAALGRLSAELHELATLPRTETGSGSP-NH2), the Solubility entry in data set [1] (pH 3.0), in data set [1] (pH 4.0), in data set [1] (pH 5.0), in data set [1] (pH 6.0), in data set [1] (pH 6.5) and in data set [1] (pH 7.0) was “≧200 μM” in each case. In addition, the Solubility entry in data set [1] (pH 7.5) and in data set [1] (pH 8.0) was “≧200 μM” each time. In data set [2], the “PK mini pig iv T½” value is 108 h.
With `CC(C)C[C@H](NC(=O)[C@H](C)NC(=O)[C@H](C)NC(=O)[C@@H](NC(=O)[C@H](CO)NC(=O)[C@H](CC(C)C)NC(=O)[C@H](CCC(=O)O)NC(=O)[C@H](CO)NC(=O)[C@H](C)NC(=O)[C@H](CCC(=O)O)NC(=O)CCCCCCCCCCCCCCCCC(=O)O)[C@@H](C)O)C(=O)NCC(=O)N[C@@H](CCCNC(=N)N)C(=O)N[C@@H](CC(C)C)C(=O)N[C@@H](CO)C(=O)N[C@@H](C)C(=O)N[C@@H](CCC(=O)O)C(=O)N[C@@H](CC(C)C)C(=O)N[C@@H](Cc1cnc[nH]1)C(=O)N[C@@H](CCC(=O)O)C(=O)N[C@@H](CC(C)C)C(=O)N[C@@H](C)C(=O)N[C@H](C(=O)N[C@@H](CC(C)C)C(=O)N1CCC[C@H]1C(=O)N[C@@H](CCCNC(=N)N)C(=O)N[C@H](C(=O)N[C@@H](CCC(=O)O)C(=O)N[C@H](C(=O)NCC(=O)N[C@@H](CO)C(=O)NCC(=O)N[C@@H](CO)C(=O)N1CCC[C@H]1C(N)=O)[C@@H](C)O)[C@@H](C)O)[C@@H](C)O` [compound 21, [N-terminal(C18 diacid), 30S, 31G]mimylin] ({C18 diacid}-EASELSTAALGRLSAELHELATLPRTETGSGSP-NH2), the Solubility result in data set [1] (pH 3.0), in data set [1] (pH 4.0), in data set [1] (pH 5.0), in data set [1] (pH 6.0), in data set [1] (pH 6.5) and in data set [1] (pH 7.0) was “≧200 μM” throughout. Moreover, the Solubility result in data set [1] (pH 7.5) and in data set [1] (pH 8.0) was “≧200 μM” throughout. Further, the “PK mini pig iv T½” value in data set [2] worked out at 118 h.
In general, solubility refers to the concentration that dissolves in the medium under given conditions. Read a high solubility as a readily soluble substance. In turn, `CC(C)C[C@H](NC(=O)[C@H](C)NC(=O)[C@H](C)NC(=O)[C@@H](NC(=O)[C@H](CO)NC(=O)[C@H](CC(C)C)NC(=O)[C@H](CCC(=O)O)NC(=O)[C@H](CO)NC(=O)[C@H](C)NC(=O)[C@H](CCC(=O)O)NC(=O)CCCCCCCCCCC(=O)O)[C@@H](C)O)C(=O)NCC(=O)N[C@@H](CCCNC(=N)N)C(=O)N[C@@H](CC(C)C)C(=O)N[C@@H](CO)C(=O)N[C@@H](C)C(=O)N[C@@H](CCC(=O)O)C(=O)N[C@@H](CC(C)C)C(=O)N[C@@H](Cc1cnc[nH]1)C(=O)N[C@@H](CCC(=O)O)C(=O)N[C@@H](CC(C)C)C(=O)N[C@@H](C)C(=O)N[C@H](C(=O)N[C@@H](CC(C)C)C(=O)N1CCC[C@H]1C(=O)N[C@@H](CCCNC(=N)N)C(=O)N[C@H](C(=O)N[C@@H](CCC(=O)O)C(=O)N[C@H](C(=O)NCC(=O)N1CCC[C@H]1C(=O)N[C@@H](CCC(=O)O)C(=O)N[C@@H](CO)C(=O)N1CCC[C@H]1C(N)=O)[C@@H](C)O)[C@@H](C)O)[C@@H](C)O` [compound 6, [N-terminal(C12 diacid)]mimylin] ({C12 diacid}-EASELSTAALGRLSAELHELATLPRTETGPESP-NH2) returned a solubility at 18 h in data set [1] (bistrispropane buffer, pH 6.5) of no less than 200 µM. Further, the Solubility result in data set [1] (pH 3.0), in data set [1] (pH 4.0), in data set [1] (pH 5.0), in data set [1] (pH 6.0), in data set [1] (pH 7.0) and in data set [1] (pH 7.5) was “≧200 μM” throughout. Besides, the Solubility entry in data set [1] (pH 8.0) is “≧200 μM”. Also, the “PK mini pig iv T½” value in data set [2] came to 1 h.
On to `CC(C)C[C@H](NC(=O)[C@H](CCCNC(=N)N)NC(=O)CNC(=O)[C@H](CC(C)C)NC(=O)[C@@H](NC(=O)[C@H](C)NC(=O)[C@@H](NC(=O)[C@H](CO)NC(=O)[C@H](CC(C)C)NC(=O)[C@H](CCC(N)=O)NC(=O)[C@H](CO)NC(=O)[C@H](C)NC(=O)CC[C@H](NC(=O)CCCCCCCCCCCCCCCCCCC(=O)O)C(=O)O)[C@@H](C)O)C(C)C)C(=O)N[C@@H](CO)C(=O)N[C@@H](CCC(N)=O)C(=O)N[C@@H](CCC(=O)O)C(=O)N[C@@H](CC(C)C)C(=O)N[C@@H](Cc1cnc[nH]1)C(=O)N[C@@H](CCC(=O)O)C(=O)N[C@@H](CC(C)C)C(=O)N[C@@H](CCC(N)=O)C(=O)N[C@H](C(=O)N[C@@H](Cc1ccc(O)cc1)C(=O)N1CCC[C@H]1C(=O)N[C@@H](CCCNC(=N)N)C(=O)N[C@H](C(=O)N[C@@H](CCC(=O)O)C(=O)N[C@H](C(=O)NCC(=O)N[C@@H](CO)C(=O)N[C@@H](CCC(N)=O)C(=O)N[C@H](C(=O)N[C@@H](Cc1ccc(O)cc1)C(N)=O)[C@@H](C)O)[C@@H](C)O)[C@@H](C)O)[C@@H](C)O` [compound 116, [N-terminal(C20 diacid-gGlu), des1, 4Q, 9V, 15Q, 21Q, 23Y, 30S, 31Q, 32T, 33Y]mimylin] ({C20 diacid-γGlu}-ASQLSTAVLGRLSQELHELQTYPRTETGSQTY-NH2), for which the Solubility entry in data set [1] (pH 3.0), in data set [1] (pH 4.0), in data set [1] (pH 6.0), in data set [1] (pH 6.5), in data set [1] (pH 7.0) and in data set [1] (pH 7.5) was “≧200 μM” each time. The Solubility result in data set [1] (pH 8.0) is reported as “≧200 μM”. Moreover, the solubility at 18 h in data set [1] (pH 5.0) is 32 µM (≈ 129 µg/mL). Moreover, the “PK mini pig iv T½” value in data set [2] was determined as 87 h.
